According to ChEMBL document CHEMBL1149223, “Non-nucleoside inhibitors of the hepatitis C virus NS5B polymerase: discovery and preliminary SAR of benzimidazole derivatives” (Bioorg Med Chem Lett, 2004):
pEC50, pIC50: −log10 of the molar value.

Key:
[1] = target: RNA-directed RNA polymerase (Hepacivirus hominis, UniProt O39930); assay: Inhibitory activity against NS5B polymerase of hepatitis C virus
[2] = target: Genome polyprotein (Human poliovirus 1 Mahoney, UniProt P03300); assay: Inhibitory activity against polio virus RNA polymerase
Genome polyprotein, sequence (P03300 1749-2209 limits assumed): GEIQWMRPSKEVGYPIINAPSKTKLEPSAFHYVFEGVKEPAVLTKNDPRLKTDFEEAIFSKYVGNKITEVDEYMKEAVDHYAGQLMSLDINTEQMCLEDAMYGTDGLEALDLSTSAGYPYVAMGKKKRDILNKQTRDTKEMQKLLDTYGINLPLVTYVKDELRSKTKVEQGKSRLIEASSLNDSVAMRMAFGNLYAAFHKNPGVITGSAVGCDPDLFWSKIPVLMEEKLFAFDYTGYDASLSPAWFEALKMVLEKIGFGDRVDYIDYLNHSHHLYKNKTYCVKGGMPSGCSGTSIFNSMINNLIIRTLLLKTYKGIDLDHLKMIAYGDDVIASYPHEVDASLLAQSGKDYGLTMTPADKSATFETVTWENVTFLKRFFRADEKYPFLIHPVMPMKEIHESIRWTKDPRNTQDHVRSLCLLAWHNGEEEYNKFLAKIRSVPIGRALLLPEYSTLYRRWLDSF

[3] = tested on: Hepatitis C virus; assay: Inhibitory activity against HCV RNA replication; assay type: functional, organism-based, Hepacivirus hominis
[4] = target: RNA-directed RNA polymerase (Hepacivirus hominis) (UniProt O39930); assay: Inhibitory activity against NS5B polymerase of hepatitis C virus at 7 uM concentration; (Range = 13-30)
RNA-directed RNA polymerase (Hepacivirus hominis), sequence (O39930 1-591): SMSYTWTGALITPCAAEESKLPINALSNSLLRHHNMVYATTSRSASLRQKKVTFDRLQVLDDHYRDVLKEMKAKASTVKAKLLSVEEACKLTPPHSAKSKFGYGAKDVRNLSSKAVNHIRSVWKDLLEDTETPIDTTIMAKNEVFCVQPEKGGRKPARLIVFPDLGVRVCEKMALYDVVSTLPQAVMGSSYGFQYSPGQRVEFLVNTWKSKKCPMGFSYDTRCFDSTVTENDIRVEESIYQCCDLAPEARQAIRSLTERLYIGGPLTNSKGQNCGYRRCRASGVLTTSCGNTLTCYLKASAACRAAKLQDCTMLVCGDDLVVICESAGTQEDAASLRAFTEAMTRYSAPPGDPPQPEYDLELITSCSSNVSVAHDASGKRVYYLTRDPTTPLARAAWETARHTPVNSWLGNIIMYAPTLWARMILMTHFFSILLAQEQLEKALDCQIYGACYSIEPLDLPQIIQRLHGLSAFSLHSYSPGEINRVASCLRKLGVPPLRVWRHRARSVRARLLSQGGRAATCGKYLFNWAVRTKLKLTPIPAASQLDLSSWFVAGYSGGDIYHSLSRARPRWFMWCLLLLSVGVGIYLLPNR

RNA-directed RNA polymerase, sequence (O39930 whole entry): as the sequence (O39930 1-591) above

SMILES	pIC50 [1]	pIC50 [2]	pEC50 [3]	inhibition [4] [%]
O=C(O)c1ccc2c(c1)nc(-c1nccs1)n2C1CCCCC1	5.34	< 3.30	–	–
O=C(O)c1ccc2c(c1)nc(-c1ccccn1)n2C1CCC1	4.12	–	–	–
CCc1ccc(-c2nc3cc(C(=O)O)ccc3n2C2CCCCC2)o1	< 4.52	–	–	–
COc1ccc(CNC(=O)c2ccc3c(c2)nc(-c2ccccn2)n3C2CCCCC2)cc1OC	5.15	< 3.30	–	–
O=C(O)c1ccc2[nH]c(-c3ccccn3)nc2c1	< 3.30	–	–	–
O=C(O)c1ccc2c(c1)nc(-c1ccc(CO)o1)n2C1CCCCC1	< 4.52	–	–	–
O=C(O)c1ccc2c(c1)nc(-c1ccc3ccccc3n1)n2C1CCCCC1	< 4.52	–	–	–
CCc1ccc(-c2nc3cc(C(=O)O)ccc3n2C2CCCCC2)s1	< 4.52	–	–	–
O=C(O)c1ccc2c(c1)nc(-c1ccc(Br)o1)n2C1CCCCC1	< 4.52	–	–	–
Cn1cccc1-c1nc2cc(C(=O)O)ccc2n1C1CCCCC1	5.74	< 3.30	–	–
O=C(O)c1ccc2c(c1)nc(-c1ccc(C(=O)O)o1)n2C1CCCCC1	< 4.52	–	–	–
O=C(O)c1ccc2c(c1)nc(-c1ccccc1)n2C1CCCCC1	5.07	3.60	–	–
CC(C)=Cc1nc2cc(C(=O)O)ccc2n1C1CCCCC1	4.72	< 3.30	–	–
NC(=O)c1ccc2c(c1)nc(-c1ccccn1)n2C1CCCCC1	4.57	–	–	–
CCC(CC)n1c(-c2ccccn2)nc2cc(C(=O)O)ccc21	3.86	–	–	–
COc1ccc(CCNC(=O)c2ccc3c(c2)nc(-c2ccccn2)n3C2CCCCC2)cc1OC	4.92	< 3.30	–	–
O=C(O)c1ccc2c(c1)nc(-c1ccccn1)n2-c1ccccc1	3.44	–	–	–
O=C(O)c1ccc2c(c1)nc(-c1ccccn1)n2C1CCCCC1	5.37	< 3.30	< 4.00	–
O=C(O)c1ccc2c(c1)nc(C(=O)c1ccccc1)n2C1CCCCC1	4.36	–	–	–
O=C(O)c1ccc2c(c1)nc(-c1cc3ccccc3o1)n2C1CCCCC1	4.24	–	–	–
CC1CCCCC1n1c(-c2ccccn2)nc2cc(C(=O)O)ccc21 (centres undefined)	4.89	< 3.30	–	–
O=C(O)c1ccc2c(c1)nc(-c1ccc(-c3ccc(Cl)cc3)o1)n2C1CCCCC1	< 4.52	–	–	–
O=C(O)c1ccc2c(c1)nc(-c1ccoc1)n2C1CCCCC1	5.80	< 3.60	< 4.00	–
CCOC(=O)c1nc2cc(C(=O)O)ccc2n1C1CCCCC1	4.21	–	–	–

SMILES	pIC50 [1]	pIC50 [2]	pEC50 [3]	inhibition [4] [%]
Cc1c(-c2nc3cc(C(=O)O)ccc3n2C2CCCCC2)[nH]c2ccccc12	< 4.52	–	–	–
Cc1cc(-c2nc3cc(C(=O)O)ccc3n2C2CCCCC2)oc1C	< 4.52	–	–	–
O=C(O)c1ccc2c(c1)nc(-c1ccc(C(=O)O)s1)n2C1CCCCC1	< 4.52	–	–	–
CC1CCC(n2c(-c3ccccn3)nc3cc(C(=O)O)ccc32)CC1 (centres undefined)	4.30	–	–	–
O=C(O)c1ccc2c(c1)nc(-c1ncc[nH]1)n2C1CCCCC1	5.00	< 3.60	–	–
O=C(O)c1ccc2c(c1)nc(-c1ccncc1)n2C1CCCCC1	4.77	< 3.30	–	–
O=C(O)c1ccc2c(c1)nc(C1CCCCC1)n2C1CCCCC1	4.70	–	–	–
Cc1ccc(-c2nc3cc(C(=O)O)ccc3n2C2CCCCC2)s1	< 4.52	–	–	–
O=C(O)c1ccc2c(c1)nc(-c1ccccn1)n2C1CCCCCC1	4.31	–	–	–
O=C(O)c1ccc2c(c1)nc(-c1cccnc1)n2C1CCCCC1	4.55	< 3.60	–	–
O=C(O)c1ccc2c(c1)nc(-c1ccc[nH]1)n2C1CCCCC1	5.23	< 3.30	–	–
COc1ccc(NC(=O)c2ccc3c(c2)nc(-c2ccccn2)n3C2CCCCC2)cc1OC	–	–	–	30
O=C(O)c1ccc2c(c1)nc(-c1cccs1)n2C1CCCCC1	5.47	< 3.60	< 4.00	–
CC(C)n1c(-c2ccccn2)nc2cc(C(=O)O)ccc21	3.39	–	–	–
Cc1[nH]cnc1-c1nc2cc(C(=O)O)ccc2n1C1CCCCC1	< 4.52	–	–	–
O=C(O)c1ccc2c(c1)nc(-c1ccco1)n2C1CCCCC1	5.43	< 3.30	–	–
O=C(O)c1ccc2c(c1)nc(-c1ccccn1)n2C1CCCC1	4.92	< 3.30	–	–
O=C(O)c1ccc2c(c1)nc(-c1ccsc1)n2C1CCCCC1	5.20	< 3.60	< 4.00	–
CNC(=O)c1ccc2c(c1)nc(-c1ccccn1)n2C1CCCCC1	4.55	–	–	–
O=C(O)c1ccc2c(c1)nc(-c1c[nH]nc1-c1ccccc1)n2C1CCCCC1	< 4.52	–	–	–
Cc1cccc(-c2nc3cc(C(=O)O)ccc3n2C2CCCCC2)n1	< 4.52	–	–	–
O=C(O)c1ccc2c(c1)ncn2C1CCCCC1	3.73	–	–	–
CN(C)CCCNC(=O)COc1ccc(-c2nc3cc(C(=O)O)ccc3n2C2CCCCC2)cc1	4.89	–	–	–
Cc1cc(C)c(-c2nc3cc(C(=O)O)ccc3n2C2CCCCC2)c(C)c1	3.92	–	–	–
